Assays:
Assay type in all cases: biochemical
[1] = target: T1, PDE2A (catalytic domain, 580–919) (Homo sapiens, UniProt O00408); experiment: In vitro PDE2 enzymatic inhibition assay (3H-cGMP substrate); conditions: for inhibition at 0.1 µM / inhibition at 0.5 µM: PDE2; for inhibition at 0.1 µM: compound at 0.1 μM, read-out: Inhibition Ratio (%) 0.1 μM; for inhibition at 0.5 µM: compound at 0.5 μM, read-out: Inhibition Ratio (%) 0.5 μM; for IC50: means ± SD of three experiments, 3H-cGMP, 25 °C, 15 min, read-out: IC50 (nM) against PDE2
T1 construct: made in house; host or cells: E. coli BL21 (CodonPlus)
T1 sequence (O00408 580-919): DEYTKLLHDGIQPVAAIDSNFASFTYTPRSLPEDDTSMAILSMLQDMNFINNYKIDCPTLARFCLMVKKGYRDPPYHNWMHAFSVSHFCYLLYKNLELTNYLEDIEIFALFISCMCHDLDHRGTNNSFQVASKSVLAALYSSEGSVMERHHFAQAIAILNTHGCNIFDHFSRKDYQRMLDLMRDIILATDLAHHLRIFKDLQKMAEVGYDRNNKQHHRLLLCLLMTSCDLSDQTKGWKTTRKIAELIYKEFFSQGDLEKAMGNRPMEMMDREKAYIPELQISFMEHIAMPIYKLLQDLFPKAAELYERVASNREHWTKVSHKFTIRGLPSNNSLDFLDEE
Protocol: Purification and expression of the recombinant pET15b-PDE2A plasmid (catalytic domain, 580–919) was performed following our previously reported method. The plasmid pET15b-PDE2A (catalytic domain, 580–919) was transferred to thawed competent E. coli BL21 cells (CodonPlus, Agilent Technologies, Santa Clara, CA, USA), which were grown in 2XYT medium with 100 μg/mL ampicillin and 20 μg/mL chloramphenicol at 37 °C until OD600 = 0.6–0.8. Then, 0.1 mM isopropylthiogalactoside was added for induction, and protein expression was induced by continuing to grow the cells at 16 °C for 24 h. After that, bacteria were collected by centrifugation and frozen overnight at −20 °C. The bacteria containing the recombinant plasmid of the target protein were subjected to cell disruption and passed through a Ni-NTA agarose affinity column, Q-Sepharose ion-exchange column and other steps. The purity can be 95% or more, and a typical purification batch produces 10–20 mg of PDE2A protein from 1.0 L of cell culture.
Using the appropriate concentration of ^3H-cGMP as the substrate, different compound solutions were added to the test group, DMSO was added to the negative control and blank control groups, and EHNA was added to the positive control group, followed by protein solution (the proteins were all diluted with Assay Buffer); Assay Buffer was added to the blank group. The enzymatic reaction was performed at room temperature (25 °C) for 15 min, and then, 0.2 M ZnSO4 was added to inactivate PDE2 and to stop the reaction. Then, 0.2 N Ba(OH)2 solution was added to precipitate the reaction product, and unreacted ^3H-cGMP remained in the supernatant. After mixing the system, it was centrifuged. The radioactivity of the supernatant was measured with a liquid scintillation counter, and the inhibitory activity of the compound against PDE2 was calculated. The above test was repeated three times (the IC50 test generally used 9 concentrations, and the single-point test was directly diluted with DMSO to the required concentration).

PDE1C (2–634) = target: T2, PDE1C (2–634) (Homo sapiens, UniProt Q14123); experiment: PDE selectivity enzymatic assay, PDE1C; conditions: Table 2 selectivity panel
T2 construct: PDE1C (2–634)
T2 sequence (Q14123 2-634 isoform Q14123-2): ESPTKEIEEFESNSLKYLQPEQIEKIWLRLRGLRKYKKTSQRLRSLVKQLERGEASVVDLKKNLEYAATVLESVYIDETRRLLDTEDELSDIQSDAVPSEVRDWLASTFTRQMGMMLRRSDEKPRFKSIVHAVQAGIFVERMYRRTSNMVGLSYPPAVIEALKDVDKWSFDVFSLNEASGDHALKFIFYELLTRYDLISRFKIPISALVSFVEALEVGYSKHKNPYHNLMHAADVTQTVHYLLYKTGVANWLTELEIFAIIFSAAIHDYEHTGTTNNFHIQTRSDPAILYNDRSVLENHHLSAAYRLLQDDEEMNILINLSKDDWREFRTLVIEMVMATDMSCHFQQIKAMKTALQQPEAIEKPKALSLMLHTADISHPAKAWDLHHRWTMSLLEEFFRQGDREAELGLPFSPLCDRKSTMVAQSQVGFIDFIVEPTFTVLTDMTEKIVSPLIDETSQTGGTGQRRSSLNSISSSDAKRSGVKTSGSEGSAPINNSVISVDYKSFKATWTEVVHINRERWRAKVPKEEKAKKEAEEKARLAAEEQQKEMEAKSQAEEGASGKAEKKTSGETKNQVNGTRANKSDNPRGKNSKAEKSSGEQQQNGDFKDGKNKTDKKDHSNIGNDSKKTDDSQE

PDE4D2 (86–413) = target: T3, PDE4D2 (86–413) (Homo sapiens, UniProt Q08499); experiment: PDE selectivity enzymatic assay, PDE4D2; conditions: Table 2 selectivity panel
T3 construct: PDE4D2 (86–413)
T3 sequence (Q08499 388-715): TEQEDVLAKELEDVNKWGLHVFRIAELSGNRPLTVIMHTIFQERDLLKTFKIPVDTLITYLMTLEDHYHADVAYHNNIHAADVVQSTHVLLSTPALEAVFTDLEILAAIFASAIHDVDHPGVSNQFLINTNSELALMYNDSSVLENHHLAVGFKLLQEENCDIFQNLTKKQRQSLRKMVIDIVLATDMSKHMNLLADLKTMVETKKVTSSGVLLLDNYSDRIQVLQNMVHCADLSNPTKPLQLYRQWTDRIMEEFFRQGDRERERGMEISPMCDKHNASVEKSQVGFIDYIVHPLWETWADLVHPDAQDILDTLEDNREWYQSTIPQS

COc1ccc(OCc2ccc(C(F)(F)F)cc2)c(C2C(C#N)=C(N)Oc3[nH]nc(C)c32)c1 (single isomer, unassigned; (+)) [(+)-11h] was tested, and the inhibition at 0.1 µM [1] was 75.9%, the inhibition at 0.5 µM [1] was 93.6% and the IC50 [1] was 41.5 ± 3.4 nM. For the same compound, the IC50 (PDE1C (2–634)) was 8760 ± 668 nM and the IC50 (PDE4D2 (86–413)) was > 10000 nM.
With COc1ccc(OCc2ccc(C(F)(F)F)cc2)c(C2C(C#N)=C(N)Oc3[nH]ncc32)c1 (stereo not shown) [Compound 11r, 6-Amino-4-(5-methoxy-2-((4-(trifluoromethyl)benzyl)oxy)phenyl)-1,4-dihydropyrano[2,3-c]pyrazole-5-carbonitrile] the inhibition at 0.1 µM [1] was 22.7%, the inhibition at 0.5 µM [1] was 60.5% and the IC50 [1] was 445.3 ± 3.4 nM.
COc1ccc(OCc2ccc(C(F)(F)F)cc2)c(C2C(C#N)=C(N)Oc3[nH]nc(-c4ccccc4)c32)c1 (stereo not shown) [Compound 11s, 6-Amino-4-(5-methoxy-2-((4-(trifluoromethyl)benzyl)oxy)phenyl)-3-phenyl-1,4-dihydropyrano[2,3-c]pyrazole-5-carbonitrile] showed an inhibition at 0.1 µM [1] of 46.3%, an inhibition at 0.5 µM [1] of 75.3% and an IC50 [1] of 154 ± 6.2 nM.
COc1cc(C2C(C#N)=C(N)Oc3[nH]nc(C)c32)c(OCc2ccc(C(F)(F)F)cc2)cc1Cl (stereo not shown) [Compound 11t, 6-Amino-4-(4-chloro-5-methoxy-2-((4-(trifluoromethyl)benzyl)oxy)phenyl)-3-methyl-1,4-dihydropyrano[2,3-c]pyrazole-5-carbonitrile] was tested, and the inhibition at 0.5 µM [1] was 10.3%.
COc1ccc(OCc2ccc(C(F)(F)F)cc2)c(C2C(C#N)=C(N(C)C)Oc3[nH]nc(C)c32)c1 (stereo not shown) [Compound 16, 6-(Dimethylamino)-4-(5-methoxy-2-((4-(trifluoromethyl)benzyl)oxy)phenyl)-3-methyl-1,4-dihydropyrano[2,3-c]pyrazole-5-carbonitrile] gave an inhibition at 0.5 µM [1] of 9.6%.

Reference: PMC8160813, “Design, Synthesis, and Evaluation of Dihydropyranopyrazole Derivatives as Novel PDE2 Inhibitors for the Treatment of Alzheimer’s Disease” (Molecules, 2021)
